# Results from US9534300B2, “Water soluble substituted imidazolines as corrosion inhibitors for ferrous metals” (Ecolab USA, Inc., priority 2014, dated 2017).
# Assay: Solubility in water of synthesized substituted imidazolines
# Format: physicochemical
row,Solubility in water,Structure (SMILES)
1,Yes Yes Yes,"CCCCCC1=NCCN1CCNCCC(=O)O [No. 5, 3-((2-(2-pentyl-4,5-dihydro-1H-imidazol-1-yl)ethyl)amino)propanoic acid]"
2,Yes Yes Yes,"CCCCCCCC1=NCCN1CCNCCC(=O)O [No. 6, 3-((2-(2-heptyl-4,5-dihydro-1H-imidazol-1-yl)ethyl)amino)propanoic acid]"
3,Yes Yes Yes,"CCCCCCCCCCCC1=NCCN1CCNCCC(=O)O [No. 7, 3-((2-(2-undecyl-4,5-dihydro-1H-imidazol-1-yl)ethyl)amino)propanoic acid]"
